Experimental data: US10336746B1, “RAD51 inhibitors” (Cyteir Therapeutics, Inc., priority 2017, dated 2019)
pEC50: −log10 of the molar value. Where two headings read alike, the source gives them in different places.

Experiments:
[1] = test system: WI-38 cells (AID negative); assay: Primary screening cell killing assay repeated in WI-38 cells (AID negative); assay type: cell-based; conditions: Homo sapiens, 168 h, cell death on Day 7, Cell-Titer Glo
Method: Primary screening was a phenotypic screen that utilized the synthetic lethal interaction between AID and RAD51 to identify compounds that were both potent and on target. AID expressing cells are dependent upon RAD51 for survival; inhibiting RAD51 in AID positive cells results in a cytotoxic effect.
Percent cell death and EC50 values were calculated by comparing the cell viability of the compound treated wells to the non-treated wells. Normalized RLU values were obtained by subtracting the media well values from each of the wells in the same column, and then dividing that value by the DMSO treated cells values. The percent kill was then calculated by subtracting the normalized RLU value from 1 and multiplying by 100. The average normalized percent kill value and standard error of the mean was then calculated. The kill values were then inputted into Prism with the corresponding standard errors. In Prism a non-linear regression line was plotted with the data points using a semi-log scale, and the EC50 value was calculated.

[2] = test system: Daudi cell line (AID positive); assay: Primary screening cell killing assay, Daudi cell line (AID positive); assay type: cell-based; conditions: Homo sapiens, 168 h, cell death on Day 7, Cell-Titer Glo
Method in brief: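 AID-positive Daudi cells, 1250 per well, were exposed to serially diluted compounds for 7 days at 37° C. Viability read by CellTiter-Glo luminescence; percent cell death and EC50 derived against untreated wells after media-blank subtraction.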

[3] = Bi-directional Caco-2 permeability; assay type: in vitro ADME; conditions: human; for efflux ratio at 90 min: Caco-2, read-out: BA/AB Ratio; for Papp A→B at 90 min: Caco-2, apical to basolateral, read-out: AB Papp (cm/sec × 10^6); for Papp A→B at 90 min / Papp B→A at 90 min: 37 C, up to 90 minutes; for Papp B→A at 90 min: Caco-2, basolateral to apical, read-out: BA Papp (cm/sec × 10^6)
Method: Bi-directional Caco-2 permeability was assayed. Caco-2 cells were seeded onto permeable polycarbonate supports and allowed to differentiate for about 3 weeks prior to being used in the assays. The cells were then exposed to the compounds from either the apical or basolateral sides and incubated at 37 C for up to 90 minutes under light agitation. Compound transport was then measured using LC/MS/MS analysis at 30, 60, and 90 minutes.

[4] = Caco-2, Caco-2, AB direction, read-out: AB Recovery %
[5] = Caco-2, Caco-2, BA direction, read-out: BA Recovery %

| recovery at 90 min [3, 4] | recovery at 90 min [3, 5] | efflux ratio at 90 min [3] | Papp A→B at 90 min [3] | Papp B→A at 90 min [3] | Compound | pEC50 [1] | pEC50 [2] |
| --- | --- | --- | --- | --- | --- | --- | --- |
| 55.3% | 86% | 0.9 | 12 ×10⁻⁶ cm/s | 11.2 ×10⁻⁶ cm/s | CC(C)OC(=O)Nc1ccc(-c2cnc([C@@H]3CC[C@@H](NC(=O)OC(C)C)CO3)s2)c(S(=O)(=O)NC(C)(C)C)c1 [Ex. 60A] | < 6.00 | < 6.00 |
| 79.8% | 116% | 1.4 | 11.5 ×10⁻⁶ cm/s | 15.7 ×10⁻⁶ cm/s | CC(C)OC(=O)N[C@H]1CC[C@H](c2ncc(-c3ccc(NC(=O)N[C@H](C)c4ccccn4)cc3S(=O)(=O)NC(C)(C)C)s2)CC1 [Ex. 30, isopropyl ((1R,4r)-4-(5-(2-(N-(tert-butyl)sulfamoyl)-4-(3-((R)-1-(pyridin-2-yl)ethyl)ureido)phenyl)thiazol-2-yl)cyclohexyl)carbamate] | < 6.00 | ≥ 7.00 |
| 63.1% | 90.9% | 1 | 9.3 ×10⁻⁶ cm/s | 9.7 ×10⁻⁶ cm/s | CC(C)(C)NS(=O)(=O)c1cc(NC(=O)NCc2ccccc2F)ccc1-c1cnc(C2CCC(NC(=O)OC3COC3)CC2)s1 (stereo not drawn) [Ex. 53, oxetan-3-yl ((1r,4r)-4-(5-(2-(N-(tert-butyl)sulfamoyl)-4-(3-(2-fluorobenzyl)ureido)phenyl)thiazol-2-yl)cyclohexyl)carbamate] | < 6.00 | ≥ 7.00 |
| 52.3% | 83.5% | 0.7 | 5.1 ×10⁻⁶ cm/s | 3.4 ×10⁻⁶ cm/s | CC(C)OC(=O)Nc1ccc(-c2sc(C3CCC(NC(=O)OC(C)C)CC3)nc2F)c(S(=O)(=O)NC(C)(C)C)c1 (stereo not drawn) [Ex. 58, isopropyl ((1r,4r)-4-(5-(2-(N-(tert-butyl)sulfamoyl)-4-((isopropoxycarbonyl)amino)phenyl)-4-fluorothiazol-2-yl)cyclohexyl)carbamate] | < 6.00 | 6.00 to 7.00 |
| 47.2% | 81.9% | 0.8 | 2.8 ×10⁻⁶ cm/s | 2.1 ×10⁻⁶ cm/s | CC(C)OC(=O)Nc1ccc(-c2cnc(C34CCC(NC(=O)OC(C)C)(CC3)CC4)s2)c(S(=O)(=O)NC(C)(C)C)c1 [Ex. 17, isopropyl N-[3-(tert-butylsulfamoyl)-4-[2-[4-(isopropoxycarbonylamino)-1-bicyclo[2.2.2]octanyl]thiazol-5-yl]phenyl]carbamate] | < 6.00 | 6.00 to 7.00 |
| 65.2% | 83.8% | 1.1 | 6.5 ×10⁻⁶ cm/s | 7 ×10⁻⁶ cm/s | C[C@H](NC(=O)Nc1ccc(-c2cnc(C3CCC(NC(=O)OC4COC4)CC3)s2)c(S(=O)(=O)NC(C)(C)C)c1)c1ccccc1F (stereo partly drawn) [Ex. 55, oxetan-3-yl ((1S,4r)-4-(5-(2-(N-(tert-butyl)sulfamoyl)-4-(3-((S)-1-(2-fluorophenyl)ethyl)ureido)phenyl)thiazol-2-yl)cyclohexyl)carbamate] | < 6.00 | ≥ 7.00 |
| 59.9% | 87.2% | 1.3 | 1.2 ×10⁻⁶ cm/s | 1.5 ×10⁻⁶ cm/s | CC(C)(C)NS(=O)(=O)c1cc(NC(=O)NCc2ccccc2)ccc1-c1cnc([C@H]2CC[C@H](NC(=O)OC(C)(C)C)CC2)s1 [Ex. 10, trans-tert-butyl N-[4-[5-[4-(benzylcarbamoylamino)-2-(tert-butylsulfamoyl)phenyl]thiazol-2-yl]cyclohexyl]carbamate] | < 6.00 | ≥ 7.00 |
| 65% | 85.7% | 1.1 | 9.9 ×10⁻⁶ cm/s | 10.5 ×10⁻⁶ cm/s | C[C@H](NC(=O)Nc1ccc(-c2cnc(C3CCC(NC(=O)OC4COC4)CC3)s2)c(S(=O)(=O)NC(C)(C)C)c1)c1ccccc1 (stereo partly drawn) [Ex. 51, oxetan-3-yl ((1S,4r)-4-(5-(2-(N-(tert-butyl)sulfamoyl)-4-(3-((S)-1-phenylethyl)ureido)phenyl)thiazol-2-yl)cyclohexyl)carbamate] | < 6.00 | ≥ 7.00 |

Continued, compound first:

| Compound | recovery at 90 min [3, 4] | recovery at 90 min [3, 5] | efflux ratio at 90 min [3] | Papp A→B at 90 min [3] | Papp B→A at 90 min [3] | pEC50 [1] | pEC50 [2] |
| --- | --- | --- | --- | --- | --- | --- | --- |
| CC(C)(C)NS(=O)(=O)c1cc(NC(=O)NCc2ccccn2)ccc1-c1cnc(C2CCC(NC(=O)OC3COC3)CC2)s1 (stereo not drawn) [Ex. 50, oxetan-3-yl ((1r,4r)-4-(5-(2-(N-(tert-butyl)sulfamoyl)-4-(3-(pyridin-2-ylmethyl)ureido)phenyl)thiazol-2-yl)cyclohexyl)carbamate] | 87.7% | 98.1% | 14.6 | 2 ×10⁻⁶ cm/s | 29.1 ×10⁻⁶ cm/s | < 6.00 | ≥ 7.00 |
| CC(C)OC(=O)N[C@@H]1CC[C@@H](c2ncc(-c3ccc(NC(=O)NCc4ccccc4)cc3S(=O)(=O)NC(C)(C)C)s2)OC1 [Ex. 59A] | 55.6% | 85.5% | 3.1 | 3.1 ×10⁻⁶ cm/s | 9.6 ×10⁻⁶ cm/s | < 6.00 | 6.00 to 7.00 |
| C[C@@H](NC(=O)Nc1ccc(-c2cnc(C3CCC(NC(=O)OC4COC4)CC3)s2)c(S(=O)(=O)NC(C)(C)C)c1)c1ccccc1 (stereo partly drawn) [Ex. 52, oxetan-3-yl ((1R,4r)-4-(5-(2-(N-(tert-butyl)sulfamoyl)-4-(3-((R)-1-phenylethyl)ureido)phenyl)thiazol-2-yl)cyclohexyl)carbamate] | 64.1% | 91.7% | 1.5 | 7.4 ×10⁻⁶ cm/s | 10.9 ×10⁻⁶ cm/s | < 6.00 | ≥ 7.00 |
| CC(C)OC(=O)Nc1ccc(-c2cnc(C3CCC(NC(=O)OC4COC4)CC3)s2)c(S(=O)(=O)NC(C)(C)C)c1 (stereo not drawn) [Ex. 48, oxetan-3-yl ((1r,4r)-4-(5-(2-(N-(tert-butyl)sulfamoyl)-4-((isopropoxycarbonyl)amino)phenyl)thiazol-2-yl)cyclohexyl)carbamate] | 80.1% | 90.3% | 0.7 | 23.1 ×10⁻⁶ cm/s | 16 ×10⁻⁶ cm/s | < 6.00 | 6.00 to 7.00 |
| CC(C)OC(=O)N[C@H]1CC[C@H](c2ncc(-c3ccc(NC(=O)NCc4cccc(F)c4)cc3S(=O)(=O)NC(C)(C)C)s2)CC1 [Ex. 27, isopropyl ((1r,4r)-4-(5-(2-(N-(tert-butyl)sulfamoyl)-4-(3-(3-fluorobenzyl)ureido)phenyl)thiazol-2-yl)cyclohexyl)carbamate] | 92% | 107% | 0.7 | 0.7 ×10⁻⁶ cm/s | 0.5 ×10⁻⁶ cm/s | < 6.00 | ≥ 7.00 |
| CC(C)OC(=O)N[C@H]1CC[C@H](c2nc(F)c(-c3ccc(NC(=O)NCc4ccccc4)cc3S(=O)(=O)NC(C)(C)C)s2)CC1 [Ex. 57, trans-isopropyl N-[4-[5-[4-(benzylcarbamoylamino)-2-(tert-butylsulfamoyl)phenyl]-4-fluoro-thiazol-2-yl]cyclohexyl]carbamate] | 61.9% | 86.8% | 2.7 | 1.3 ×10⁻⁶ cm/s | 3.5 ×10⁻⁶ cm/s | < 6.00 | ≥ 7.00 |
| CC(C)(C)NS(=O)(=O)c1cc(NC(=O)NCc2ccccc2)ccc1-c1cnc([C@H]2CC[C@H](NC(=O)OC3COC3)CC2)s1 [Ex. 47, trans-oxetan-3-yl N-[4-[5-[4-(benzylcarbamoylamino)-2-(tert-butylsulfamoyl)phenyl]thiazol-2-yl]cyclohexyl]carbamate] | 65.3% | 80.7% | 1.4 | 8.7 ×10⁻⁶ cm/s | 12.4 ×10⁻⁶ cm/s | < 6.00 | ≥ 7.00 |
| CC(C)OC(=O)NC1CCC(c2ncc(-c3ccc(NC(=O)OC4COC4)cc3S(=O)(=O)NC(C)(C)C)s2)CC1 (stereo not drawn) [Ex. 38, isopropyl ((1r,4r)-4-(5-(2-(N-(tert-butyl)sulfamoyl)-4-(((oxetan-3-yloxy)carbonyl)amino)phenyl)thiazol-2-yl)cyclohexyl)carbamate] | 73.3% | 82.3% | 1.3 | 17.9 ×10⁻⁶ cm/s | 22.9 ×10⁻⁶ cm/s | < 6.00 | ≥ 7.00 |
| CC(C)OC(=O)NC1CCC(c2ncc(-c3ccc(NC(=O)OCc4ccccn4)cc3S(=O)(=O)NC(C)(C)C)s2)CC1 (stereo not drawn) [Ex. 42, pyridin-2-ylmethyl (3-(N-(tert-butyl)sulfamoyl)-4-(2-((1r,4r)-4-((isopropoxycarbonyl)amino)cyclohexyl)thiazol-5-yl)phenyl)carbamate] |  |  |  |  |  | < 6.00 | ≥ 7.00 |
